Laboratory results taken from EP1025114B1, “3'-N-MODIFIED 6-O-SUBSTITUTED ERYTHROMYCIN KETOLIDE DERIVATIVES HAVING ANTIBACTERIAL ACTIVITY” (priority 1997, dated 1999).

What was measured:
Experiment in all cases: In vitro antibacterial activity, agar dilution MIC
Assay type in all cases: cell-based
[1] = tested on: Streptococcus Pheumoniae 5649; details: Streptococcus Pheumoniae 5649 (organism code ZZA); BHI agar, 35-37 °C, 20 to 24 hours; unit assumed
Method: (§1) Representative compounds of the present invention were assayed in vitro for antibacterial activity as follows: Twelve petri dishes containing successive aqueous dilutions of the test compound mixed with 10 mL of sterilized Brain Heart infusion (BHI) agar (Difco 0418-01-5) were prepared. Each plate was inoculated with 1:100 (or 1:10 for slow-growing strains, such as Micrococcus and Streptococcus) dilutions of up to 32 different microorganisms, using a Steers replicator block. […] In addition, a control plate, using BHI agar containing no test compound, was prepared and incubated at the beginning and end of each test.
(§2) An additional plate containing a compound having known susceptibility patterns for the organisms being tested and belonging to the same antibiotic class as the test compound was also prepared and incubated as a further control, as well as to provide test-to-test comparability.
(§3) After incubation, each plate was visually inspected. The minimum inhibitory concentration (MIC) was defined as the lowest concentration of drug yielding no growth, a slight haze, or sparsely isolated colonies on the inoculum spot as compared to the growth control.

Candida albicans CCH 442 = Candida albicans CCH 442 (organism code TT); BHI agar, 35-37 °C, 20 to 24 hours; unit assumed
Method: as §1, §2, §3

[2] = tested on: Staphylococcus aureus 1775; details: Staphylococcus aureus 1775 (organism code GG); BHI agar, 35-37 °C, 20 to 24 hours; unit assumed
Method: as §1, §2, §3

[3] = tested on: Staphylococcus aureus NCTC10649M; details: Staphylococcus aureus NCTC10649M (organism code EE); BHI agar, 35-37 °C, 20 to 24 hours; unit assumed
Method: as §1, §2, §3

[4] = tested on: Streptococcus agalactiae CMX 508; details: Streptococcus agalactiae CMX 508 (organism code KK); BHI agar, 35-37 °C, 20 to 24 hours; unit assumed
Method: as §1, §2, §3

Escherichia coli SS = Escherichia coli SS (organism code RR); BHI agar, 35-37 °C, 20 to 24 hours; unit assumed
Method: as §1, §2, §3

[5] = tested on: Nocardia Asteroides ATCC9970; details: Nocardia Asteroides ATCC9970 (organism code VV); BHI agar, 35-37 °C, 20 to 24 hours; unit assumed
Method: as §1, §2, §3

[6] = tested on: Staphylococcus aureus ATCC 6538P; details: Staphylococcus aureus ATCC 6538P (organism code AA); BHI agar, 35-37 °C, 20 to 24 hours; unit assumed
Method: as §1, §2, §3

Escherichia coli DC-2 = Escherichia coli DC-2 (organism code SS); BHI agar, 35-37 °C, 20 to 24 hours; unit assumed
Method: as §1, §2, §3

[7] = tested on: Staphylococcus aureus CMX 553; details: Staphylococcus aureus CMX 553 (organism code FF); BHI agar, 35-37 °C, 20 to 24 hours; unit assumed
Method: as §1, §2, §3

[8] = tested on: Streptococcus bovis A-5169; details: Streptococcus bovis A-5169 (organism code JJ); BHI agar, 35-37 °C, 20 to 24 hours; unit assumed
Method: as §1, §2, §3

[9] = tested on: Staphylococcus aureus CMX 642A; details: Staphylococcus aureus CMX 642A (organism code DD); BHI agar, 35-37 °C, 20 to 24 hours; unit assumed
Method: as §1, §2, §3

[10] = tested on: Enterococcus faecium ATCC 8043; details: Enterococcus faecium ATCC 8043 (organism code II); BHI agar, 35-37 °C, 20 to 24 hours; unit assumed
Method: as §1, §2, §3

[11] = tested on: Micrococcus luteus ATCC 9341; details: Micrococcus luteus ATCC 9341 (organism code OO); BHI agar, 35-37 °C, 20 to 24 hours; unit assumed
Method: as §1, §2, §3

[12] = tested on: Haemophilis Influenzae DILL AMP R; details: Haemophilis Influenzae DILL AMP R (organism code WW); BHI agar, 35-37 °C, 20 to 24 hours; unit assumed
Method: as §1, §2, §3

[13] = tested on: Staphylococcus aureus A5177; details: Staphylococcus aureus A5177 (organism code BB); BHI agar, 35-37 °C, 20 to 24 hours; unit assumed
Method: as §1, §2, §3

[14] = tested on: Streptococcus Pheumoniae 5979; details: Streptococcus Pheumoniae 5979 (organism code ZZ); BHI agar, 35-37 °C, 20 to 24 hours; unit assumed
Method: as §1, §2, §3

[15] = tested on: Mycobacterium smegmatis ATCC 114; details: Mycobacterium smegmatis ATCC 114 (organism code UU); BHI agar, 35-37 °C, 20 to 24 hours; unit assumed
Method: as §1, §2, §3

[16] = tested on: Streptococcus pyogenes EES61; details: Streptococcus pyogenes EES61 (organism code LL); BHI agar, 35-37 °C, 20 to 24 hours; unit assumed
Method: as §1, §2, §3

[17] = tested on: Streptococcus Pheumoniae ATCC6303; details: Streptococcus Pheumoniae ATCC6303 (organism code XX); BHI agar, 35-37 °C, 20 to 24 hours; unit assumed
Method: as §1, §2, §3

[18] = tested on: Staphylococcus epidermidis 3519; details: Staphylococcus epidermidis 3519 (organism code HH); BHI agar, 35-37 °C, 20 to 24 hours; unit assumed
Method: as §1, §2, §3

[19] = tested on: Staphylococcus aureus A-5278; details: Staphylococcus aureus A-5278 (organism code CC); BHI agar, 35-37 °C, 20 to 24 hours; unit assumed
Method: as §1, §2, §3

[20] = tested on: Micrococcus luteus ATCC 4698; details: Micrococcus luteus ATCC 4698 (organism code PP); BHI agar, 35-37 °C, 20 to 24 hours; unit assumed
Method: as §1, §2, §3

[21] = tested on: Streptococcus pyogenes PIU 2548; details: Streptococcus pyogenes PIU 2548 (organism code NN); BHI agar, 35-37 °C, 20 to 24 hours; unit assumed
Method: as §1, §2, §3

[22] = tested on: Streptococcus pyogenes 930; details: Streptococcus pyogenes 930 (organism code MM); BHI agar, 35-37 °C, 20 to 24 hours; unit assumed
Method: as §1, §2, §3

[23] = tested on: Streptococcus Pheumoniae GYR 1171; details: Streptococcus Pheumoniae GYR 1171 (organism code YY); BHI agar, 35-37 °C, 20 to 24 hours; unit assumed
Method: as §1, §2, §3

Escherichia coli JUHL = Escherichia coli JUHL (organism code QQ); BHI agar, 35-37 °C, 20 to 24 hours; unit assumed
Method: as §1, §2, §3

Compound	MIC [1] [µg/mL]	MIC (Candida albicans CCH 442) [µg/mL]	MIC [2] [µg/mL]	MIC [3] [µg/mL]	MIC [4] [µg/mL]	MIC (Escherichia coli SS) [µg/mL]	MIC [5] [µg/mL]	MIC [6] [µg/mL]	MIC (Escherichia coli DC-2) [µg/mL]	MIC [7] [µg/mL]	MIC [8] [µg/mL]	MIC [9] [µg/mL]	MIC [10] [µg/mL]	MIC [11] [µg/mL]	MIC [12] [µg/mL]	MIC [13] [µg/mL]	MIC [14] [µg/mL]	MIC [15] [µg/mL]	MIC [16] [µg/mL]	MIC [17] [µg/mL]	further results
CC[C@H]1OC(=O)[C@H](C)C(=O)[C@H](C)[C@@H](O[C@@H]2O[C@H](C)C[C@H](NC)[C@H]2OC(C)=O)[C@](C)(OCC=Cc2cnc3ccccc3c2)C[C@@H](C)C(=O)[C@H](C)[C@H]2NC(=O)O[C@@]21C [Example 2, Compound of formula (II), R is -CH2CH=CH-(3-quinolyl), R^p is acetyl, R^1 is H, R^2 is CH3, W is absent, R^w is H]	0.5	> 100	> 100	0.2	≤ 0.005	0.39	1.56	0.2	> 100	0.2	≤ 0.005	0.2	0.05	0.02	16	0.2	128	3.1	≤ 0.005	0.03	MIC [18]: 0.2 µg/mL; MIC [19]: > 100 µg/mL; MIC [20]: 0.1 µg/mL; MIC [21]: 0.39 µg/mL; MIC [22]: 25 µg/mL; MIC [23]: 0.03 µg/mL; MIC (Escherichia coli JUHL): > 100 µg/mL
CC[C@H]1OC(=O)[C@H](C)C(=O)[C@H](C)[C@@H](O[C@@H]2O[C@H](C)C[C@H](NC)[C@H]2O)[C@](C)(OCC=Cc2cnc3ccccc3c2)C[C@@H](C)C(=O)[C@H](C)[C@H]2NC(=O)O[C@@]21C [Example 3, Compound of Formula (II); R is -CH2CH=CH-(3-quinolyl), R^p is H, W is absent, R^w is H, R^1 is H, R^2 is CH3-]	0.5	> 100	> 100	0.39	0.02	0.78	3.1	0.2	> 100	0.39	0.01	0.39	0.2	0.02	16	0.2	> 128	12.5	0.01	0.03	MIC [18]: 0.39 µg/mL; MIC [19]: > 100 µg/mL; MIC [20]: 0.1 µg/mL; MIC [21]: 0.39 µg/mL; MIC [22]: 12.5 µg/mL; MIC [23]: 0.03 µg/mL; MIC (Escherichia coli JUHL): > 100 µg/mL
